From patent US20120022164A1, “EXTERNAL PREPARATION COMPRISING PROSTAGLANDIN DERIVATIVE” (TAISHO PHARMACEUTICAL CO., LTD., priority 2006, published 2012)
Where two headings read alike, the source gives them in different places. One block for each molecule: values may come before it.

Columns and labels:
[1] = Solubility in water; type: physicochemical; conditions: water at 25° C.
[2] = Solubility of compound of formula II in cyclodextrin aqueous solutions (Test Example 7); type: physicochemical; conditions: for solubility at 24 h: 25 °C, aqueous with cosolvent or surfactant or cyclodextrin, thermodynamic from solid
Procedure: A complex containing the compound of formula II and the cyclodextrin can be obtained by grinding a block prepared by freeze-drying a solution which is obtained by dissolving the both into water. In order to examine the minimum content (formulation amount) of cyclodextrin required to obtain the complex, solubility of the compound of formula II in cyclodextrin aqueous solutions which have different concentrations of and different types of cyclodextrin was measured. That is, cyclodextrin aqueous solutions of various concentrations were prepared by dissolving α-cyclodextrin, β-cyclodextrin, γ-cyclodextrin or hydroxypropyl-β-cyclodextrin into water. After each solution was poured into a test tube, the compound of formula II was added excessively. The test tube was shaken in a water bath at 25° C. for 24 hours, and a concentration of the dissolved compound of formula II was quantified with high-performance liquid chromatography (Equipment: LC10VP series manufactured by SHIMADZU CORPORATION, Column: Develosil ODS-HG-5 manufactured by Nomura Chemical Co., Ltd., Inner diameter: 4.6 mm, Length: 15 cm, Column temperature: 40° C., Mobile phase: mixed solution of water/acetonitrile/phosphoric acid (550:450:1), Flow rate: 1 mL/min, Detection wavelength: 200 nm). With this, solubility of the compound of formula II and molar ratio of the compound of formula II and each type of cyclodextrin were calculated.
Note that, for calculation of the molar ratios, molecular weights of the compound of formula II, α-cyclodextrin, β-cyclodextrin, γ-cyclodextrin and hydroxypropyl-β-cyclodextrin were set to 420.99, 972.84, 1134.98, 1297.12 and 1506.69, respectively.

[3] = cited from earlier work; for Solubility in water: cyclodextrins, water at 25° C.

- solubility [1]: ~60 µg/mL
- Solubility of compound of formula II (mg/mL) ([2]; hydroxypropyl-β-cyclodextrin 0.25% by mass in water, 25° C., * completely dissolved, actual solubility assumed much higher): > 0.10* mg/mL
- Solubility of compound of formula II (mg/mL) ([2]; hydroxypropyl-β-cyclodextrin 5% by mass in water, 25° C., * completely dissolved, actual solubility assumed much higher): > 2.0* mg/mL
- Solubility of compound of formula II (mg/mL) ([2]; hydroxypropyl-β-cyclodextrin 10% by mass in water, 25° C., * completely dissolved, actual solubility assumed much higher): > 3.0* mg/mL
- solubility at 24 h ([2]; α-cyclodextrin aqueous solution, α-cyclodextrin 1% by mass in water, 25° C., 24 hours, read-out: Solubility of compound of formula II): 110 µg/mL
- solubility at 24 h ([2]; α-cyclodextrin aqueous solution, α-cyclodextrin 2% by mass in water, 25° C., 24 hours, read-out: Solubility of compound of formula II): 170 µg/mL
- solubility at 24 h ([2]; α-cyclodextrin aqueous solution, α-cyclodextrin 5% by mass in water, 25° C., 24 hours, read-out: Solubility of compound of formula II): 500 µg/mL
- solubility at 24 h ([2]; α-cyclodextrin aqueous solution, α-cyclodextrin 10% by mass in water, 25° C., 24 hours, read-out: Solubility of compound of formula II): 1220 µg/mL
- solubility at 24 h ([2]; α-cyclodextrin aqueous solution, α-cyclodextrin 12% by mass in aqueous solution, 25° C. (FIG. 1), read-out: Solubility of the compound of formula II): 1520 µg/mL
- solubility at 24 h ([2]; β-cyclodextrin aqueous solution, β-cyclodextrin 1% by mass in water, 25° C., 24 hours, read-out: Solubility of compound of formula II): < 100 µg/mL
- solubility at 24 h ([2]; β-cyclodextrin aqueous solution, β-cyclodextrin 2% by mass in water, 25° C., * completely dissolved, actual solubility assumed much higher, read-out: Solubility of compound of formula II): > 200 µg/mL
- Compound of formula II: cyclodextrin (molar ratio) ([2]; γ-cyclodextrin 5% by mass): 0.1396
- solubility at 24 h ([2]; γ-cyclodextrin aqueous solution, γ-cyclodextrin 0.1% by mass in water, 25° C., * completely dissolved, actual solubility assumed much higher, read-out: Solubility of compound of formula II): > 50 µg/mL
- solubility at 24 h ([2]; γ-cyclodextrin aqueous solution, γ-cyclodextrin 1% by mass in water, 25° C., 24 hours, read-out: Solubility of compound of formula II): 170 µg/mL
- solubility at 24 h ([2]; γ-cyclodextrin aqueous solution, γ-cyclodextrin 5% by mass in water, 25° C., 24 hours, read-out: Solubility of compound of formula II): 120 µg/mL
Molecule: O=C(O)CSCCCC[C@@H]1[C@@H](C#C[C@@H](O)C2CCCCC2)[C@H](O)C[C@H]1Cl [compound of formula II]

Molecule: OC[C@H]1O[C@@H]2O[C@H]3[C@H](O)[C@@H](O)[C@@H](O[C@H]4[C@H](O)[C@@H](O)[C@@H](O[C@H]5[C@H](O)[C@@H](O)[C@@H](O[C@H]6[C@H](O)[C@@H](O)[C@@H](O[C@H]7[C@H](O)[C@@H](O)[C@@H](O[C@H]1[C@H](O)[C@H]2O)O[C@@H]7CO)O[C@@H]6CO)O[C@@H]5CO)O[C@@H]4CO)O[C@@H]3CO [α-cyclodextrin]
- Solubility in water [3]: approximately 14%
- Solubility of α-cyclodextrin in water ([3]; water): approximately 14 % by mass

Molecule: OC[C@H]1O[C@@H]2O[C@H]3[C@H](O)[C@@H](O)[C@@H](O[C@H]4[C@H](O)[C@@H](O)[C@@H](O[C@H]5[C@H](O)[C@@H](O)[C@@H](O[C@H]6[C@H](O)[C@@H](O)[C@@H](O[C@H]7[C@H](O)[C@@H](O)[C@@H](O[C@H]8[C@H](O)[C@@H](O)[C@@H](O[C@H]1[C@H](O)[C@H]2O)O[C@@H]8CO)O[C@@H]7CO)O[C@@H]6CO)O[C@@H]5CO)O[C@@H]4CO)O[C@@H]3CO [β-cyclodextrin]
- Solubility in water [3]: approximately 2%

Molecule: hydroxypropyl-β-cyclodextrin
- Solubility in water [3]: approximately 22%
